Laboratory results taken from publication PMC8185074, “Anchor extension: a structure-guided approach to design cyclic peptides targeting enzyme active sites” (Nature Communications, 2021).
Peptide text beside a SMILES is read from it.

Key:
Format in all cases: biochemical
HDAC8 = biological target: T1, HDAC8 (Homo sapiens, UniProt Q9BY41); assay: HDAC8 inhibition, full IC50 measurement (Reaction Biology; fluorogenic p53 peptide RHKK(Ac)AMC); details: t1/t2 replicates
T1 construct: purchased Reaction Biology Corporation (assay run by the CRO)
T1 sequence (Q9BY41 1-377): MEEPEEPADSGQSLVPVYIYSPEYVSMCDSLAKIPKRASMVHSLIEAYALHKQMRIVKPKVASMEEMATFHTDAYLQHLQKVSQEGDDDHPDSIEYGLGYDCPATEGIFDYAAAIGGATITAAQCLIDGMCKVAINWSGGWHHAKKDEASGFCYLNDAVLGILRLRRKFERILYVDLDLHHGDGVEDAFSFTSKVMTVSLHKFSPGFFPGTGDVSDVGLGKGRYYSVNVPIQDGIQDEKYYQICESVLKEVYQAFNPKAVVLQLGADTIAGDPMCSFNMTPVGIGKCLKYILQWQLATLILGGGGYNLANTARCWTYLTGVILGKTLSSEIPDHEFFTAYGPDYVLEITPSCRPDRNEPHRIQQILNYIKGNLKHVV
Method in brief: (§1)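 Inhibitory peptides were acoustically dispensed with enzyme, then substrate added; 1 h at 30 °C. Developer stopped reaction; plateau endpoint fluorescence (360/460 nm) gave IC50.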

HDAC2 = biological target: T2, HDAC2 (Homo sapiens, UniProt Q92769); assay: HDAC2 inhibition, full IC50 measurement (Reaction Biology; fluorogenic p53 peptide RHKK(Ac)AMC)
T2 construct: purchased Reaction Biology Corporation (assay run by the CRO)
T2 sequence (Q92769 whole entry): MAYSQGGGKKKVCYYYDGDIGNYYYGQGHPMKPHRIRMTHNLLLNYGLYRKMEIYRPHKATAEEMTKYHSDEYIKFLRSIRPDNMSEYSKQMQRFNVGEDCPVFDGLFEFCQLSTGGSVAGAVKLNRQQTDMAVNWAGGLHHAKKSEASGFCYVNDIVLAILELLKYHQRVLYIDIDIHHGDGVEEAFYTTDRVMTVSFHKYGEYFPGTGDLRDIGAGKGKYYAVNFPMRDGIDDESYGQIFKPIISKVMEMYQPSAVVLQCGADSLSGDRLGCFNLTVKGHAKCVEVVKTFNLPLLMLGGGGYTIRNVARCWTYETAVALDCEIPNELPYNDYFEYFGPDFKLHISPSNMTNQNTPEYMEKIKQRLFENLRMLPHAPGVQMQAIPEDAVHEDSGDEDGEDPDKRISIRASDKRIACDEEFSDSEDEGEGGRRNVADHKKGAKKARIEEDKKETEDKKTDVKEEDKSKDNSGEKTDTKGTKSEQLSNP
Method in brief: as §1

HDAC1 = biological target: T3, HDAC1 (Homo sapiens, UniProt Q13547); assay: HDAC1 inhibition, full IC50 measurement (Reaction Biology; fluorogenic p53 peptide RHKK(Ac)AMC); details: t1/t2 replicates
T3 construct: purchased Reaction Biology Corporation (assay run by the CRO)
T3 sequence (Q13547 whole entry): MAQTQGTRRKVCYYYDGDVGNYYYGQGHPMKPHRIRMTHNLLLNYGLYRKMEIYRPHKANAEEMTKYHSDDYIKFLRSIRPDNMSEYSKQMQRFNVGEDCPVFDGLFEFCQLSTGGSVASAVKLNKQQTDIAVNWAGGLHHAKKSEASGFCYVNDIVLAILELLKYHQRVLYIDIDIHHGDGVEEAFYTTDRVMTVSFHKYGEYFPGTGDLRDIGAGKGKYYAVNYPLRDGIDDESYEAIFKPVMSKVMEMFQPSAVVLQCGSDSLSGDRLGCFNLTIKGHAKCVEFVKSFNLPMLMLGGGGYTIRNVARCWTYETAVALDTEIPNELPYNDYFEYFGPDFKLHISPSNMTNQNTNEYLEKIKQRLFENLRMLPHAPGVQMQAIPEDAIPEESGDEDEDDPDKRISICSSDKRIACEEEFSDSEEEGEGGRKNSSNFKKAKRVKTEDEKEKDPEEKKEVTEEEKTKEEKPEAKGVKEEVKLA
Method in brief: as §1

[1] = peptide conc. 1.00E-05 M, listed as des2.1.0_t1
[2] = peptide conc. 1.00E-05 M, listed as des2.1.0_t2
[3] = peptide conc. 1.11E-06 M, listed as des2.1.0_t1
[4] = peptide conc. 1.11E-06 M, listed as des2.1.0_t2
[5] = peptide conc. 1.23E-07 M, listed as des2.1.0_t1
[6] = peptide conc. 1.23E-07 M, listed as des2.1.0_t2
[7] = peptide conc. 1.37E-08 M, listed as des2.1.0_t1
[8] = peptide conc. 1.37E-08 M, listed as des2.1.0_t2
[9] = peptide conc. 1.52E-09 M, listed as des2.1.0_t1
[10] = peptide conc. 1.52E-09 M, listed as des2.1.0_t2
[11] = peptide conc. 3.33E-06 M, listed as des2.1.0_t1
[12] = peptide conc. 3.33E-06 M, listed as des2.1.0_t2
[13] = peptide conc. 3.70E-07 M, listed as des2.1.0_t1
[14] = peptide conc. 3.70E-07 M, listed as des2.1.0_t2
[15] = peptide conc. 4.12E-08 M, listed as des2.1.0_t1
[16] = peptide conc. 4.12E-08 M, listed as des2.1.0_t2
[17] = peptide conc. 4.57E-09 M, listed as des2.1.0_t1
[18] = peptide conc. 4.57E-09 M, listed as des2.1.0_t2
[19] = peptide conc. 5.08E-10 M, listed as des2.1.0_t1
[20] = peptide conc. 5.08E-10 M, listed as des2.1.0_t2

For `C[C@H](O)[C@H]1NC(=O)[C@H](Cc2c[nH]c3ccccc23)NC(=O)[C@H](CCCCCS)NC(=O)[C@H](CCCCN)NC(=O)[C@@H](CC(=O)O)NC(=O)[C@@H](CCCCN)NC(=O)[C@@H](CO)NC(=O)[C@H](CC(N)=O)NC(=O)[C@H](CC(=O)O)NC1=O` [des2.1.0, SHA-Trp-dThr-Asp-Asn-dSer-dLys-dAsp-Lys] (HELM PEPTIDE1{D.N.[dS].[dK].[dD].K.[O=C([C@H](CCCCCS)N[*:1])[*:2]].W.[dT]}$PEPTIDE1,PEPTIDE1,1:R1-9:R2$$$V2.0), the “HDAC8 activity raw data (signal)” value (HDAC8; [1]) was 3317278, the “HDAC8 activity raw data (signal)” value (HDAC8; [2]) was 3225773 and the “HDAC8 activity raw data (signal)” value (HDAC8; [3]) was 14350924. The “HDAC8 activity raw data (signal)” value (HDAC8; [4]) was 13274280, the “HDAC8 activity raw data (signal)” value (HDAC8; [5]) was 29733699 and the “HDAC8 activity raw data (signal)” value (HDAC8; [6]) was 29791882. For the same compound, the “HDAC8 activity raw data (signal)” value (HDAC8; [7]) was 39649362, the “HDAC8 activity raw data (signal)” value (HDAC8; [8]) was 39639123 and the “HDAC8 activity raw data (signal)” value (HDAC8; [9]) was 48372865. For the same compound, the “HDAC8 activity raw data (signal)” value (HDAC8; [10]) was 43623554, the “HDAC8 activity raw data (signal)” value (HDAC8; [11]) was 8085277 and the “HDAC8 activity raw data (signal)” value (HDAC8; [12]) was 7910023. The “HDAC8 activity raw data (signal)” value (HDAC8; [13]) was 24973470, the “HDAC8 activity raw data (signal)” value (HDAC8; [14]) was 23110500 and the “HDAC8 activity raw data (signal)” value (HDAC8; [15]) was 39179752. For the same compound, the “HDAC8 activity raw data (signal)” value (HDAC8; [16]) was 38239026, the “HDAC8 activity raw data (signal)” value (HDAC8; [17]) was 45086009 and the “HDAC8 activity raw data (signal)” value (HDAC8; [18]) was 40240975. The “HDAC8 activity raw data (signal)” value (HDAC8; [19]) was 46468325, the “HDAC8 activity raw data (signal)” value (HDAC8; [20]) was 43451568 and the “HDAC2 activity raw data (signal)” value (HDAC2; Conc. 1.00E-05 M, t1) was 8775. The “HDAC2 activity raw data (signal)” value (HDAC2; Conc. 1.00E-05 M, t2) was 5752, the “HDAC2 activity raw data (signal)” value (HDAC2; Conc. 1.11E-06 M, t1) was 59204 and the “HDAC2 activity raw data (signal)” value (HDAC2; Conc. 1.11E-06 M, t2) was 55653. For the same compound, the “HDAC2 activity raw data (signal)” value (HDAC2; Conc. 1.23E-07 M, t1) was 287500, the “HDAC2 activity raw data (signal)” value (HDAC2; Conc. 1.23E-07 M, t2) was 296559 and the “HDAC2 activity raw data (signal)” value (HDAC2; Conc. 1.37E-08 M, t1) was 771007. For the same compound, the “HDAC2 activity raw data (signal)” value (HDAC2; Conc. 1.37E-08 M, t2) was 731853, the “HDAC2 activity raw data (signal)” value (HDAC2; Conc. 1.52E-09 M, t1) was 900838 and the “HDAC2 activity raw data (signal)” value (HDAC2; Conc. 1.52E-09 M, t2) was 951179. For the same compound, the “HDAC2 activity raw data (signal)” value (HDAC2; Conc. 3.33E-06 M, t1) was 26370, the “HDAC2 activity raw data (signal)” value (HDAC2; Conc. 3.33E-06 M, t2) was 19470 and the “HDAC2 activity raw data (signal)” value (HDAC2; Conc. 3.70E-07 M, t1) was 153888. The “HDAC2 activity raw data (signal)” value (HDAC2; Conc. 3.70E-07 M, t2) was 158440, the “HDAC2 activity raw data (signal)” value (HDAC2; Conc. 4.12E-08 M, t1) was 557731 and the “HDAC2 activity raw data (signal)” value (HDAC2; Conc. 4.12E-08 M, t2) was 531503. The “HDAC2 activity raw data (signal)” value (HDAC2; Conc. 4.57E-09 M, t1) was 870100, the “HDAC2 activity raw data (signal)” value (HDAC2; Conc. 4.57E-09 M, t2) was 861014 and the “HDAC2 activity raw data (signal)” value (HDAC2; Conc. 5.08E-10 M, t1) was 1022928. For the same compound, the “HDAC2 activity raw data (signal)” value (HDAC2; Conc. 5.08E-10 M, t2) was 990162, the IC50 (HDAC2; figure legends, Supp. Table 1, read-out: HDAC2 IC50) was 49.3 nM and the “HDAC1 activity raw data (signal)” value (HDAC1; [1]) was 2361. The “HDAC1 activity raw data (signal)” value (HDAC1; [2]) was -1067, the “HDAC1 activity raw data (signal)” value (HDAC1; [3]) was 35066 and the “HDAC1 activity raw data (signal)” value (HDAC1; [4]) was 30452. The “HDAC1 activity raw data (signal)” value (HDAC1; [5]) was 229823, the “HDAC1 activity raw data (signal)” value (HDAC1; [6]) was 221730 and the “HDAC1 activity raw data (signal)” value (HDAC1; [7]) was 719453. For the same compound, the “HDAC1 activity raw data (signal)” value (HDAC1; [8]) was 647364, the “HDAC1 activity raw data (signal)” value (HDAC1; [9]) was 1054522 and the “HDAC1 activity raw data (signal)” value (HDAC1; [10]) was 936834. For the same compound, the “HDAC1 activity raw data (signal)” value (HDAC1; [11]) was 10147, the “HDAC1 activity raw data (signal)” value (HDAC1; [12]) was 8024 and the “HDAC1 activity raw data (signal)” value (HDAC1; [13]) was 106445. The “HDAC1 activity raw data (signal)” value (HDAC1; [14]) was 96156, the “HDAC1 activity raw data (signal)” value (HDAC1; [15]) was 447049 and the “HDAC1 activity raw data (signal)” value (HDAC1; [16]) was 424224. For the same compound, the “HDAC1 activity raw data (signal)” value (HDAC1; [17]) was 905513, the “HDAC1 activity raw data (signal)” value (HDAC1; [18]) was 862794 and the “HDAC1 activity raw data (signal)” value (HDAC1; [19]) was 1056262. The “HDAC1 activity raw data (signal)” value (HDAC1; [20]) was 1080293.
